The results in this text go back to patent publication US8193185B2, “Use of tryptanthrin compounds for immune potentiation” (Novartis Vaccines and Diagnostics, Inc., priority 2003, dated 2012).

The structures appear in SMILES notation.

The subject of this assay is human peripheral blood mononuclear cells (PBMC). Kind of assay: HTS assay for small molecule immune potentiators: TNF-a production by human PBMC (sandwich ELISA). The assay is classed as cell-based. Conditions: human PBMC 500,000 per mL, 18 h at 37° C., secreted TNF by sandwich ELISA. The source says: Candidate small molecule immune potentiators can be identified in vitro. Compounds are screened in vitro for their ability to stimulate human peripheral blood mononuclear cells to produce cytokines (e.g. TNF-a and IL-12 p40). Apoptosis inducing small molecules may be identified having this activity. These small molecule immunopotentiators have potential utility as adjuvants and immunotherapeutics.
In an assay procedure (High Throughput Screening (HTS)) for small molecule immune potentiators (SMIPs), human peripheral blood mononuclear cells (PBMC), 500,000 per mL in RPMI 1640 medium with 10% FCS, are distributed in 96 well plates (100,000 per well) already containing 5 μM of compound in DMSO. The PBMCs are incubated for 18 h at 37° C. in 5% CO2. Their ability to produce cytokines in response to the small molecule compounds is determined using a modified sandwich ELISA.
Briefly supernatants from the PBMC cultures are assayed for secreted TNF using a primary plate bound antibody for capture followed by a secondary biotinylated anti-TNF antibody forming a sandwich. The biotinylated second antibody is then detected using streptavidin-Europium and the amount of bound europium is determined by time resolved fluorescence. Compounds are screened for their TNF inducing activity that is measured in the assay as increased Europim counts over cells incubated in RPMI medium alone. “Hits” are selected based on their TNF-inducing activity relative to an optimal dose of lipopolysaccaride LPS (1 μg/ml), a strong TNF inducer. The robustness of the assay and low backgrounds have allowed for the routine selection of hits with ˜10% of LPS activity that is normally between 5-10× background (cells alone). Selected hits are then subjected to confirmation for their ability to induce cytokines from multiple donors at decreasing concentrations. Those compounds with consistent activity at or below 5 μM are considered confirmed for the purposes of this assay. The assay is readily modified for screening for compounds effective at higher or lower concentrations.
A word on the minimal effective concentration: it is the smallest amount tested that counted as effective. `O=C1c2cc(I)ccc2-n2c1nc1c(O)cccc1c2=O` [Compound 1040, 4-hydroxy-8-iodoindolo[2,1-b]quinazoline-6,12-dione]: the minimal effective concentration is at least 20 µM.

For the molecule `O=C1c2cc(I)ccc2-n2c1nc1c(Cl)cc(Cl)cc1c2=O` [Compound 1041, 2,4-dichloro-8-iodoindolo[2,1-b]quinazoline-6,12-dione], the minimal effective concentration was at least 20 µM. In the case of `O=C1c2cc(I)ccc2-n2c1nc1ccc(I)cc1c2=O` [Compound 1042, 2,8-diiodoindolo[2,1-b]quinazoline-6,12-dione], the minimal effective concentration was at least 20 µM. In the case of `O=C1c2cc(I)ccc2-n2c1nc1c(I)cc(I)cc1c2=O` [Compound 1043, 2,4,8-triiodoindolo[2,1-b]quinazoline-6,12-dione], the minimal effective concentration is at least 20 µM. As to `O=C1c2cc(F)ccc2-n2c1nc1c(OCc3ccccc3)cccc1c2=O` [Compound 1044, 8-fluoro-4-[(phenylmethyl)oxy]indolo [2,1-b]quinazoline-6,12-dione], the minimal effective concentration is at least 20 µM. The result for `O=C1c2cc(Cl)ccc2-n2c1nc1cc(N3CCOCC3)ccc1c2=O` [Compound 1045, 8-chloro-3-morpholin-4-ylindolo[2,1-b]quinazoline-6,12-dione] reads at least 20 µM. In the case of `O=C1c2cc(C(F)(F)F)ccc2-n2c1nc1ccccc1c2=O` [Compound 1046, 8-(trifluoromethyl)indolo[2,1-b]quinazoline-6,12-dione], the minimal effective concentration is at least 20 µM. The result for `CN(CC(=O)O)c1ccc2c(=O)n3c(nc2c1)C(=O)c1cc(Cl)ccc1-3` [Compound 1047, [(8-chloro-6,12-dioxo-6,12-dihydroindolo[2,1-b]quinazolin-3-yl)(methyl)amino]acetic acid] reads at least 20 µM. As to `CN(CCOC(=O)CCC(=O)O)c1ccc2c(=O)n3c(nc2c1)C(=O)c1cc(Cl)ccc1-3` [Compound 1048, 4-({2-[(8-chloro-6,12-dioxo-6,12-dihydroindolo[2,1-b]quinazolin-3-yl)(methyl)amino]ethyl}oxy)-4-oxobutanoic acid], the minimal effective concentration is at least 20 µM. The result for `CCCCCCCC(=O)OCCN(C)c1ccc2c(=O)n3c(nc2c1)C(=O)c1cc(Cl)ccc1-3` [Compound 1049, 2-[(8-chloro-6,12-dioxo-6,12-dihydroindolo[2,1-b]quinazolin-3-yl)(methyl)amino]ethyl octanoate] reads at least 20 µM. On to `CN(CCO)c1ccc2c(=O)n3c(nc2c1)C(=O)c1cc(OC(F)(F)F)ccc1-3` [Compound 1050, 3-[(2-hydroxyethyl)(methyl)a-mino]-8-[(trifluoromethyl)oxy]indol o[2,1-b]quinazoline-6,12-dione], for which the minimal effective concentration is at least 20 µM.

As for `O=C1c2cc(Cl)ccc2-n2c1nc1cc(SCCO)ccc1c2=O` [Compound 1051, 8-chloro-3-[(2-hydroxyethyl)thio]indolo[2,1-b]quinazoline-6,12-dione], the minimal effective concentration was at least 20 µM. The value for `CC(=O)OCCCCCCc1ccc2c(c1)C(=O)c1nc3ncccc3c(=O)n1-2` [Compound 1052, 6-(5,11-dioxo-5,11-dihydropyrido[2′,3′:4,5]py-rimido[1,2-a]indol-9-yl)hexyl acetate] was at least 20 µM.
